According to PubChem BioAssay (NCI):
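All cell lines were grown in 96-well plates and treated with compound for 48 hours. GI50 marks 50% less growth. TGI: concentration producing complete growth inhibition.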

What was measured:
Assay in all cases: inhibition of tumour cell growth, NCI panel, 48 h
SK-MEL-5 melanoma = tested on: SK-MEL-5 melanoma
SF-268 CNS = tested on: SF-268 CNS
IGROV1 ovarian = tested on: IGROV1 ovarian
A498 renal = tested on: A498 renal
PC-3 prostate = tested on: PC-3 prostate
HCT-15 colon = tested on: HCT-15 colon
UACC-62 melanoma = tested on: UACC-62 melanoma
MDA-MB-435 = tested on: MDA-MB-435
SNB-75 CNS = tested on: SNB-75 CNS
MDA-MB-231 breast = tested on: MDA-MB-231 breast
M14 melanoma = tested on: M14 melanoma
SK-OV-3 ovarian = tested on: SK-OV-3 ovarian
TK-10 renal = tested on: TK-10 renal
SF-539 CNS = tested on: SF-539 CNS
SW-620 colon = tested on: SW-620 colon
MDA-MB-468 breast = tested on: MDA-MB-468 breast
OVCAR-3 ovarian = tested on: OVCAR-3 ovarian
RPMI-8226 leukemia = tested on: RPMI-8226 leukemia
SK-MEL-28 melanoma = tested on: SK-MEL-28 melanoma
786-0 renal = tested on: 786-0 renal
CCRF-CEM leukemia = tested on: CCRF-CEM leukemia
DU-145 prostate = tested on: DU-145 prostate
NCI/ADR-RES ovarian = tested on: NCI/ADR-RES ovarian
T-47D breast = tested on: T-47D breast
HS 578T breast = tested on: HS 578T breast
UACC-257 melanoma = tested on: UACC-257 melanoma
NCI-H522 lung = tested on: NCI-H522 lung
SF-295 CNS = tested on: SF-295 CNS
MALME-3M melanoma = tested on: MALME-3M melanoma
A549 NSCLC = tested on: A549 NSCLC
UO-31 renal = tested on: UO-31 renal
HCC-2998 colon = tested on: HCC-2998 colon
COLO 205 colon = tested on: COLO 205 colon
NCI-H23 lung = tested on: NCI-H23 lung
K-562 leukemia = tested on: K-562 leukemia
CAKI-1 renal = tested on: CAKI-1 renal
HT29 colon = tested on: HT29 colon
U251 CNS = tested on: U251 CNS
BT-549 breast = tested on: BT-549 breast
NCI-H226 lung = tested on: NCI-H226 lung
OVCAR-4 ovarian = tested on: OVCAR-4 ovarian
EKVX NSCLC = tested on: EKVX NSCLC
SK-MEL-2 melanoma = tested on: SK-MEL-2 melanoma
HOP-62 NSCLC = tested on: HOP-62 NSCLC
ACHN renal = tested on: ACHN renal
SN12C renal = tested on: SN12C renal
NCI-H460 lung = tested on: NCI-H460 lung
HOP-92 NSCLC = tested on: HOP-92 NSCLC
MOLT-4 leukemia = tested on: MOLT-4 leukemia
LOX IMVI melanoma = tested on: LOX IMVI melanoma
SNB-19 CNS = tested on: SNB-19 CNS
RXF 393 renal = tested on: RXF 393 renal
OVCAR-8 ovarian = tested on: OVCAR-8 ovarian
KM12 colon = tested on: KM12 colon
HCT-116 colon = tested on: HCT-116 colon
OVCAR-5 ovarian = tested on: OVCAR-5 ovarian
MCF7 breast = tested on: MCF7 breast
HL-60(TB) leukemia = tested on: HL-60(TB) leukemia

COC(=O)C[C@](O)(CCCC(C)C)C(=O)O[C@H]1C(OC)=C[C@@]23CCCN2CCc2cc4c(cc2[C@@H]13)OCO4
GI50 (SK-MEL-5 melanoma): 823 nM
TGI (SK-MEL-5 melanoma): 2450 nM
GI50 (SF-268 CNS): 5010 nM
TGI (SF-268 CNS): 22800 nM
GI50 (IGROV1 ovarian): 1770 nM
TGI (IGROV1 ovarian): 18800 nM
GI50 (A498 renal): 776 nM
TGI (A498 renal): 5780 nM
GI50 (PC-3 prostate): 1380 nM
TGI (PC-3 prostate): 14600 nM
GI50 (HCT-15 colon): 1130 nM
TGI (HCT-15 colon): 4220 nM
GI50 (UACC-62 melanoma): 3150 nM
TGI (UACC-62 melanoma): 16600 nM
GI50 (MDA-MB-435): 1830 nM
TGI (MDA-MB-435): 12900 nM
GI50 (SNB-75 CNS): 1970 nM
TGI (SNB-75 CNS): 13900 nM
GI50 (MDA-MB-231 breast): 3880 nM
TGI (MDA-MB-231 breast): 14600 nM
GI50 (M14 melanoma): 1140 nM
TGI (M14 melanoma): 4660 nM
GI50 (SK-OV-3 ovarian): 1620 nM
TGI (SK-OV-3 ovarian): 38200 nM
GI50 (TK-10 renal): 4120 nM
TGI (TK-10 renal): 27300 nM
GI50 (SF-539 CNS): 838 nM
TGI (SF-539 CNS): 2240 nM
GI50 (SW-620 colon): 1490 nM
TGI (SW-620 colon): 32500 nM
GI50 (MDA-MB-468 breast): 869 nM
TGI (MDA-MB-468 breast): 3200 nM
GI50 (OVCAR-3 ovarian): 1130 nM
TGI (OVCAR-3 ovarian): 8520 nM
GI50 (RPMI-8226 leukemia): 1050 nM
TGI (RPMI-8226 leukemia): 2990 nM
GI50 (SK-MEL-28 melanoma): 1290 nM
TGI (SK-MEL-28 melanoma): 8710 nM
GI50 (786-0 renal): 1960 nM
TGI (786-0 renal): 14300 nM
GI50 (CCRF-CEM leukemia): 1020 nM
TGI (CCRF-CEM leukemia): 7080 nM
GI50 (DU-145 prostate): 1910 nM
TGI (DU-145 prostate): 17900 nM
GI50 (NCI/ADR-RES ovarian): 2550 nM
TGI (NCI/ADR-RES ovarian): 19000 nM
GI50 (T-47D breast): 1620 nM
TGI (T-47D breast): 31800 nM
GI50 (HS 578T breast): 2120 nM
TGI (HS 578T breast): 18500 nM
GI50 (UACC-257 melanoma): 2160 nM
TGI (UACC-257 melanoma): 15600 nM
GI50 (NCI-H522 lung): 1030 nM
TGI (NCI-H522 lung): 2970 nM
GI50 (SF-295 CNS): 1490 nM
TGI (SF-295 CNS): 11600 nM
GI50 (MALME-3M melanoma): 888 nM
TGI (MALME-3M melanoma): 3220 nM
GI50 (A549 NSCLC): 1390 nM
TGI (A549 NSCLC): 17700 nM
GI50 (UO-31 renal): 1070 nM
TGI (UO-31 renal): 11200 nM
GI50 (HCC-2998 colon): 723 nM
TGI (HCC-2998 colon): 2710 nM
GI50 (COLO 205 colon): 1790 nM
TGI (COLO 205 colon): 8730 nM
GI50 (NCI-H23 lung): 1350 nM
TGI (NCI-H23 lung): 6660 nM
GI50 (K-562 leukemia): 1140 nM
TGI (K-562 leukemia): 11100 nM
GI50 (CAKI-1 renal): 2410 nM
TGI (CAKI-1 renal): 35200 nM
GI50 (HT29 colon): 1160 nM
TGI (HT29 colon): 5990 nM
GI50 (U251 CNS): 1210 nM
TGI (U251 CNS): 11800 nM
GI50 (BT-549 breast): 995 nM
TGI (BT-549 breast): 3740 nM
GI50 (NCI-H226 lung): 940 nM
TGI (NCI-H226 lung): 7230 nM
GI50 (OVCAR-4 ovarian): 1640 nM
TGI (OVCAR-4 ovarian): 17000 nM
GI50 (EKVX NSCLC): 2290 nM
TGI (EKVX NSCLC): 18100 nM
GI50 (SK-MEL-2 melanoma): 3960 nM
TGI (SK-MEL-2 melanoma): 12700 nM
GI50 (HOP-62 NSCLC): 2800 nM
TGI (HOP-62 NSCLC): 30000 nM
GI50 (ACHN renal): 1210 nM
TGI (ACHN renal): 6610 nM
GI50 (SN12C renal): 3620 nM
TGI (SN12C renal): 23200 nM
GI50 (NCI-H460 lung): 695 nM
TGI (NCI-H460 lung): 4780 nM
GI50 (HOP-92 NSCLC): 2300 nM
TGI (HOP-92 NSCLC): 18600 nM
GI50 (MOLT-4 leukemia): 699 nM
TGI (MOLT-4 leukemia): 3400 nM
GI50 (LOX IMVI melanoma): 852 nM
TGI (LOX IMVI melanoma): 4450 nM
GI50 (SNB-19 CNS): 917 nM
TGI (SNB-19 CNS): 6240 nM
GI50 (RXF 393 renal): 641 nM
TGI (RXF 393 renal): 2180 nM
GI50 (OVCAR-8 ovarian): 1790 nM
TGI (OVCAR-8 ovarian): 19700 nM
GI50 (KM12 colon): 1540 nM
TGI (KM12 colon): 21600 nM
GI50 (HCT-116 colon): 992 nM
TGI (HCT-116 colon): 5440 nM
GI50 (OVCAR-5 ovarian): 2560 nM
TGI (OVCAR-5 ovarian): 15400 nM
GI50 (MCF7 breast): 751 nM
TGI (MCF7 breast): 2790 nM
GI50 (HL-60(TB) leukemia): 771 nM
TGI (HL-60(TB) leukemia): 2270 nM
